# Experiments:
# Format in all cases: binding
# EF-1 alpha = biological target: T1, EF-1 alpha (Homo sapiens, UniProt P68104); test: DARTS with DB, detection of EF-1 alpha by immunoblotting
# T1 construct: endogenous in cells; host or cells: Jurkat cells
# Experimental: FIG. 7 illustrates DARTS with Didemnin B using whole-cell lysates. Lysates from untreated human Jurkat cells were incubated with DMSO control or DB (1 ng/mL, 10 ng/mL, 100 ng/mL, 300 ng/mL, and 1 μg/mL) for 30 min at room temperature. Each sample was then split into two, which underwent thermolysin proteolysis, or mock digestion, respectively, followed by western blot analysis. Protection can be seen starting at 100 ng/mL.
# Examination of the protected band and the matching gel region of the control lane by mass spectrometry confirmed that EF-1 alpha was the primary protein present at higher abundance in the DB-treated sample (FIG. 3B). […] The generality of this approach is further supported by experiments using diverse protein-drug pairs ranging from nano- to micro-molar: mTOR-rapamycin, COX-2celecoxib, and SCF E3 ubiquitin ligase-inhibitor (FIG. 8). Furthermore, DARTS is not enzyme specific, and much higher overall digestion efficiency can be achieved using other proteases while retaining protection of the target protein (see Example 2 and FIG. 9).
# For FIGS. 3A and 3C, intact Jurkat cells were treated with DB from 100 pg/mL to 1 μg/mL or DMSO control for 30 min. […]
# For FIG. 7, human Jurkat cells were lysed in M-PER (Pierce) supplemented with protease and phosphatase inhibitors. Protein concentration was determined by BCA Protein Assay kit (Pierce). […]
# [1] = biological target: T2, proteins of human Jurkat cell lysate (EF-1alpha isoforms and others) (Homo sapiens, UniProt P06733); test: DARTS with DB-treated intact Jurkat cells, thermolysin, Coomassie staining and mass spectrometry of protected band; details: DB vs DMSO, mass spectrometry
# T2 construct: endogenous in cells; host or cells: Jurkat cells
# Text: (§1) The experiments above established that DARTS can efficiently test, screen, or verify drug-protein interactions when the protein is available in relatively pure form. For DARTS to be generally useful as a discovery tool, however, applicability to complex protein mixtures (such as cell lysates) would be desirable. […] Given that EF-1 alpha is a highly abundant protein, we first tested whether in the DARTS protocol DB would protect EF-1 alpha from proteolysis and result in a detectable difference.
# (§2) For FIGS. 3A and 3C, intact Jurkat cells were treated with DB from 100 pg/mL to 1 μg/mL or DMSO control for 30 min. Cells were lysed (without washing, in these experiments) with M-PER (Pierce) supplemented with protease and phosphatase inhibitors. After centrifugation (14,000 rpm, 15 min), lysates were diluted to the same final volume and protein concentration with M-PER and proteolysed in reaction buffer [50 mM Tris-HCl pH 8.0, 50 mM NaCl, 10 mM CaCl2]. All steps were performed on ice or at 4° C. to help prevent premature protein degradation. Each sample was then quickly warmed to room temperature and proteolysed with 1 μg thermolysin for every 15 μg lysate for 10 min. To stop proteolysis, 0.5 M EDTA (pH 8.0) was added to each sample at a 1:10 ratio, mixed well, and placed on ice.
# (§3) Gel bands were cut out and prepared for mass spec analysis with trypsin digestion as described in SI. Peptides were analyzed by LC/MS/MS on a Thermo LTQ-Orbitrap mass spectrometer with an Eksigent LC pump. For quantitative comparison of protein and peptide abundances, MS spectra were analyzed using the differential workflow of Rosetta Elucidator (Rosetta Inpharmatics) (54). Annotation was performed using PeptideTeller and ProteinTeller (see SI).
# (§4) The result could indicate lower affinity binding of DB to PGK1, or secondary effects on protein abundance because in this experiment the cells were treated with drug in vivo.
# (§5) Proteins were initially identified by searching the spectra against the human International Protein Index database (version 3.46) and the S. cerevisiae Swissprot database (May 2008) using the SEQUEST algorithm (Eng et al. (1994) J Am Soc Mass Spectrom 5: 976-989) integrated into the Bioworks software package. Each peptide met the following criteria: XCorr ≧2 (+1), ≧3 (+2), ≧4 (+3), ≧5 (+4), and DeltaCN>0.1. For quantitative comparison of protein and peptide abundances, MS spectra were analyzed using the differential workflow of the Rosetta Elucidator software system (Rosetta Inpharmatics) (Neubert et al. (2008) J Proteome Res 7: 2270-2279). Annotation was performed using PeptideTeller and ProteinTeller with a minimum probability of 0.99 and predicted error of 0.0. Protein ratio data were generated with a P-value cutoff of 0.01 for all proteins with a peptide number >1. Intensity scaling was performed against the mean of feature signals, with 10% of outliers removed from the baseline dataset. Similar results were obtained in analysis without intensity scaling (FIG. 9A).
# [2] = biological target: T3, proteins of human Jurkat cell lysate (EF-1alpha isoforms and others) (Homo sapiens, UniProt P68104); test: as above; details: DB vs DMSO, mass spectrometry
# T3 construct: endogenous in cells; host or cells: Jurkat cells
# Text: as §1, §2, §3, §4, §5
# [3] = test system: proteins of human Jurkat cell lysate (EF-1alpha isoforms and others); test: as above; details: DB-treated Jurkat cells, 1 μg/mL, FIG. 3A
# Text: as §1, §2, §3, §4, §5
# [4] = biological target: T4, proteins of human Jurkat cell lysate (EF-1alpha isoforms and others) (Homo sapiens, UniProt Q05639); test: as above; details: DB vs DMSO, mass spectrometry
# T4 construct: endogenous in cells; host or cells: Jurkat cells
# Text: as §1, §2, §3, §4, §5
# [5] = biological target: T5, proteins of human Jurkat cell lysate (EF-1alpha isoforms and others) (Homo sapiens, UniProt P00558); test: as above; details: DB vs DMSO, mass spectrometry
# T5 construct: endogenous in cells; host or cells: Jurkat cells
# T5 sequence (P00558 1-417): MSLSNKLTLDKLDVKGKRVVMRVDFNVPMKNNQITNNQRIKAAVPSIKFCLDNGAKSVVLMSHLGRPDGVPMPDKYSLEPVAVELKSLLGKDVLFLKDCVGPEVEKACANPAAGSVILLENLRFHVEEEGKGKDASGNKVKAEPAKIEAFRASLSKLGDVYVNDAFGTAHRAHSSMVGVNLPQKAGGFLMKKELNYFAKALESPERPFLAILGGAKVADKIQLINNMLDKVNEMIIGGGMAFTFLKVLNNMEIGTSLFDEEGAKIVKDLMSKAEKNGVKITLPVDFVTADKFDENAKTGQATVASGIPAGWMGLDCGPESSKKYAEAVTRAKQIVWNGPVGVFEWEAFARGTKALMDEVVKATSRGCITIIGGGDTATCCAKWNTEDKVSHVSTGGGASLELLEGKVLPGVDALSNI
# Text: as §1, §2, §3, §4, §5
# [6] = biological target: T6, proteins of human Jurkat cell lysate (EF-1alpha isoforms and others) (Homo sapiens, UniProt Q9P2R7); test: as above; details: DB vs DMSO, mass spectrometry
# T6 construct: endogenous in cells; host or cells: Jurkat cells
# T6 sequence (Q9P2R7 53-463): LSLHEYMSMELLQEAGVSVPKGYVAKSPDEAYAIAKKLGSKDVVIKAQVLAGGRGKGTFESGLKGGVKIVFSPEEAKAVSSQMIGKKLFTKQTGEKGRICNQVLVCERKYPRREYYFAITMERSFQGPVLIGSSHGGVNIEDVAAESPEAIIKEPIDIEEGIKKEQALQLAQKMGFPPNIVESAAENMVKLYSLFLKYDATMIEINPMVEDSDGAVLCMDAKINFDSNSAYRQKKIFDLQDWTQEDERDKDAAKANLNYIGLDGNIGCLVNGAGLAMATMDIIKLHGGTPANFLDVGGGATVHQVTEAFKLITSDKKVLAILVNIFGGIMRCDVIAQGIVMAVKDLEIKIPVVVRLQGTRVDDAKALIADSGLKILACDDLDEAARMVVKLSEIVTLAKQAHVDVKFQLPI
# Text: as §1, §2, §3, §4, §5
# [7] = biological target: T7, proteins of human Jurkat cell lysate (EF-1alpha isoforms and others) (Homo sapiens, UniProt Q13838); test: as above; details: DB vs DMSO, mass spectrometry
# T7 construct: endogenous in cells; host or cells: Jurkat cells
# Text: as §1, §2, §3, §4, §5
# T1 sequence (P68104 2-462): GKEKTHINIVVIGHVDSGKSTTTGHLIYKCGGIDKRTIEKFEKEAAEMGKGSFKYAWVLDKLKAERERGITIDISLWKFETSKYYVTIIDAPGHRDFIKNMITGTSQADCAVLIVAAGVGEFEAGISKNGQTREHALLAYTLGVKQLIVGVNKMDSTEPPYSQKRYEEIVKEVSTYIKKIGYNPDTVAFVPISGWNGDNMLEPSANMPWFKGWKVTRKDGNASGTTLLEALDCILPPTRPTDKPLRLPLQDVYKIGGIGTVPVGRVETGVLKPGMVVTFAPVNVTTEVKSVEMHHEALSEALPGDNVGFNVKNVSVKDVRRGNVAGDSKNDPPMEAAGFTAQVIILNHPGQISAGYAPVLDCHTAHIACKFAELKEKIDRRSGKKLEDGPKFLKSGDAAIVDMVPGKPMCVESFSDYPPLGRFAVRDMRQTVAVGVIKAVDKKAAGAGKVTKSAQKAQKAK
# T3 sequence (P68104 whole entry, canonical isoform): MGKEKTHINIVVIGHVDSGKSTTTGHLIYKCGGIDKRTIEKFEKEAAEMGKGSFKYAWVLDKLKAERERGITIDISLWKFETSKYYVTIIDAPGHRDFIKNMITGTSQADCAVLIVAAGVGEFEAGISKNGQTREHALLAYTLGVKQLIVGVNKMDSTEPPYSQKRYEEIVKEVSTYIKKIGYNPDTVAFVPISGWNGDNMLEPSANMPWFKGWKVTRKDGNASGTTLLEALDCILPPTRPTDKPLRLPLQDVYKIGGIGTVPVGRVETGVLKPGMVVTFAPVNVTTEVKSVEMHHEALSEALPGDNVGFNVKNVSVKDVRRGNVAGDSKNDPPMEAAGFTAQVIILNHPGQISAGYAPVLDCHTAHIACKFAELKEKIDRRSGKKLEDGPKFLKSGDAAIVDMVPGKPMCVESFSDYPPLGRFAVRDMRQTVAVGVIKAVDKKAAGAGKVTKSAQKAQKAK
# T4 sequence (Q05639 whole entry, canonical isoform): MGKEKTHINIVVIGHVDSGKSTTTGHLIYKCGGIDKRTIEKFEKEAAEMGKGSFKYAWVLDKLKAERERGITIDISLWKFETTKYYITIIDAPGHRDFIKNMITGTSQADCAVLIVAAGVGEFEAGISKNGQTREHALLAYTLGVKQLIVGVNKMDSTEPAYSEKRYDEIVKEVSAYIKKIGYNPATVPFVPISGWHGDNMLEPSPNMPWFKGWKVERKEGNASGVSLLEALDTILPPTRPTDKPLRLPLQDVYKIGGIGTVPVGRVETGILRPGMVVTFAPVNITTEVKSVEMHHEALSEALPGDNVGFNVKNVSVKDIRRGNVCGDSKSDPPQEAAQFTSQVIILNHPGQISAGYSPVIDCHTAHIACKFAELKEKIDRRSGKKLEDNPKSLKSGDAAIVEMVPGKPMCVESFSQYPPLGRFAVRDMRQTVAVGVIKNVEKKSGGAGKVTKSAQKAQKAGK
# T2 sequence (P06733 whole entry, canonical isoform): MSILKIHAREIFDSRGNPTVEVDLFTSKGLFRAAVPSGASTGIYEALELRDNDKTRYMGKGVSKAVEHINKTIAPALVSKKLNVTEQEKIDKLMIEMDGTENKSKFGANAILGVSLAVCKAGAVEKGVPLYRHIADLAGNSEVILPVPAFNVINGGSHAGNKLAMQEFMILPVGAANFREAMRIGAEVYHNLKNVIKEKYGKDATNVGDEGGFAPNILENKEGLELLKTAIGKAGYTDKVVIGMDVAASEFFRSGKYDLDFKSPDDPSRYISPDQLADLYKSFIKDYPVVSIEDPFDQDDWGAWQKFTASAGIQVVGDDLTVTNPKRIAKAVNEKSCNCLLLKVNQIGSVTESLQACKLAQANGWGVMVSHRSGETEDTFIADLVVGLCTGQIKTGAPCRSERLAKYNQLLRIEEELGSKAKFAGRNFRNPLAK
# T7 sequence (Q13838 whole entry, canonical isoform): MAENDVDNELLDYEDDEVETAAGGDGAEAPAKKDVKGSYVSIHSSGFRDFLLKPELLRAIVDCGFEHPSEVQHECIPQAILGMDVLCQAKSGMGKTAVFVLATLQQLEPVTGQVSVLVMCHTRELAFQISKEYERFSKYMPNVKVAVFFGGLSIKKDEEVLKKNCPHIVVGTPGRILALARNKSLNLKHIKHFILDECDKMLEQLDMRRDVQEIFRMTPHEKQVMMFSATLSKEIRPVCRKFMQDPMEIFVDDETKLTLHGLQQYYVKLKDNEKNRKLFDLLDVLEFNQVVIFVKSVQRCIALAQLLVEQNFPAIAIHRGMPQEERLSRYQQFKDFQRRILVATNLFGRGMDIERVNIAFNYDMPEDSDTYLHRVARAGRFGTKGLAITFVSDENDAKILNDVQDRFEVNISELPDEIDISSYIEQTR
structure (smiles),measurement,setting,value
"CC[C@H](C)[C@H]1NC(=O)[C@@H](NC(=O)[C@@H](CC(C)C)N(C)C(=O)[C@@H]2CCCN2C(=O)C(C)O)[C@@H](C)OC(=O)[C@H](Cc2ccc(OC)cc2)N(C)C(=O)[C@@H]2CCCN2C(=O)[C@H](CC(C)C)NC(=O)[C@@H](C)C(=O)[C@H](C(C)C)OC(=O)C[C@@H]1O (stereo partly drawn) [DB, didemnin B]",concentration at which protection starts,"EF-1 alpha; Jurkat lysates incubated in vitro 30 min, thermolysin, western blot, FIG. 7",100 ng/mL
same,proteolytic protection of EF-1 alpha by immunoblotting,EF-1 alpha; intact cells treated and lysates incubated in vitro,concentration dependent proteolytic protection
same,change of ENO1 in protected band (depleted),[1],−1.8 fold
same,enrichment of EEF1A1 in protected band,[2],18.7 fold
same,protected band on Coomassie-stained gel after thermolysin,[3],strong protected band
same,enrichment of EEF1A2 in protected band,[4],21.7 fold
same,enrichment of PGK1 in protected band,[5],2.4 fold
same,enrichment of SUCLA2 in protected band,[6],11.7 fold
same,enrichment of BAT1 in protected band,[7],7.5 fold
